Usually Papp stands for a coefficient for how fast a substance crosses the barrier. Low values mean slow passage, high ones fast passage.

The values below come from paper PMC8464955, “Prediction of Drug–Drug Interaction Potential of Tegoprazan Using Physiologically Based Pharmacokinetic Modeling and Simulation” (Pharmaceutics, 2021).

One data set has as its target T1, CYP2C19 (Homo sapiens, UniProt P33261).
T1 construct: from tissue; host or cells: human liver microsomes
The data set is described as follows: Intrinsic clearance in human liver microsomes with CYP inhibitors. Format: in vitro ADME. On the procedure: (§1) The elimination of the PBPK model consisted of enzyme kinetic and renal clearance (Table 1). Intrinsic clearances (CLint) of tegoprazan by various CYPs were determined by an in vitro study that measured the fraction of CLint inhibited by adding the inhibitors of CYP1A2, CYP2C9, CYP2C19, CYP2D6, and CYP3A to human liver microsomes (in-house data). Based on the in vitro data, an in vitro to in vivo extrapolation (IVIVE) approach was used to estimate the in vivo CLint by each CYP enzyme. Renal clearance as an additional clearance was used from the result of a single-oral-dose study of tegoprazan 100 mg.

The next data set has as its target T2, CYP1A2 (Homo sapiens, UniProt P05177).
T2 construct: from tissue; host or cells: human liver microsomes
T2 sequence (P05177 1-516): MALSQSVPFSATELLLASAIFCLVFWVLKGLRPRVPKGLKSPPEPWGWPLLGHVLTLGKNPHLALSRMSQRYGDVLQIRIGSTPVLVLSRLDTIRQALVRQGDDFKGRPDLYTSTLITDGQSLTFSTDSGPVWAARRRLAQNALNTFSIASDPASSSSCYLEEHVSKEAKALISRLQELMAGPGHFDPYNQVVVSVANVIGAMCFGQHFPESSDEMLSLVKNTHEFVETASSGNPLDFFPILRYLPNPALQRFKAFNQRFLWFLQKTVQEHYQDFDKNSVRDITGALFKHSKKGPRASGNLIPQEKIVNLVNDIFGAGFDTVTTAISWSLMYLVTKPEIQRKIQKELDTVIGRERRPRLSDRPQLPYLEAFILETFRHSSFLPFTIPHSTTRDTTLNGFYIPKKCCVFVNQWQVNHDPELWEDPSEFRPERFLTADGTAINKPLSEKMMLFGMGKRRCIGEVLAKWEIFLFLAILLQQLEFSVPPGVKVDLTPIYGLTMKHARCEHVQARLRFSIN
The data set is described as above. The data set is classed as in vitro ADME. On the procedure: as §1

The next data set has as its target T3, CYP2C9 (Homo sapiens, UniProt P11712).
T3 construct: from tissue; host or cells: human liver microsomes
Described as above. Format: in vitro ADME. The protocol: as §1

Data set [1] can be described thus: PBPK model (SimCYP) prediction of tegoprazan PK. More on the design: species or system human. The note with it: estimated from clinical data, single dose 50 mg. The source says: A PBPK model of tegoprazan was built and verified by both the bottom-up approach using in vitro data for maintaining a mechanistic PBPK structure and the top-down approach using clinical PK results for maintaining a descriptive structure (Figure 1). The initial PBPK model of tegoprazan was constructed using physicochemical properties (e.g., molecular weight, log P, pKa), in vitro data (e.g., permeability, intrinsic clearance), and in vivo data (e.g., renal clearance) provided by HK inno.N Corp. (Seoul, Korea). The commercially available software SimCYP simulator v19 (SimCYP Limited, Certara, Sheffield, UK) was used to build the PBPK model and to generate the PK simulations. The PBPK-model-predicted PK profiles and parameters of tegoprazan were compared with the observed PK profiles and parameters from previously conducted clinical studies (Supplementary Table S1). The specific model configuration related to absorption, distribution, and elimination is described below.
The advanced dissolution, absorption, and metabolism model was used. The unbound fraction of the drug in enterocytes (fuGut) and the human jejunum effective permeability (Peff,man) were predicted because these values were not routinely measured (Table 1). […]
The elimination of the PBPK model consisted of enzyme kinetic and renal clearance (Table 1). Intrinsic clearances (CLint) of tegoprazan by various CYPs were determined by an in vitro study that measured the fraction of CLint inhibited by adding the inhibitors of CYP1A2, CYP2C9, CYP2C19, CYP2D6, and CYP3A to human liver microsomes (in-house data). […]
The PBPK model of tegoprazan as a single agent was verified using data from clinical studies of single- and multiple-dose administration of different dosages of tegoprazan. To verify the PK predictability of the PBPK model, the model-predicted PK profiles and parameters were compared with the observed PK profiles and parameters measured in clinical studies. […]

Data set [2] in a line: Clinical DDI studies of tegoprazan with clarithromycin or clarithromycin/amoxicillin (observed). Format: in vivo, human. On the procedure:
The established PBPK model was verified by applying the predicted values to the clinical PK data from various phase 1 studies conducted with healthy male adults (Supplementary Table S2). Brief information about the clinical studies follows: study 1 (single-dose PK study), a single dose of tegoprazan 25 mg and 50 mg was orally administered; study 2 (food effect study), a single dose of tegoprazan 50 mg was orally administered in both fasted and fed states; study 3 (bioequivalence study of two formulations), a single dose of two different formulations with tegoprazan 100 mg was orally administered; study 4 (multiple-dose PK study), multiple doses of tegoprazan 50 mg and 100 mg were orally administered once daily for 7 days; study 5 (DDI study with clarithromycin), multiple doses of tegoprazan 200 mg were orally administered once daily with or without multiple doses of clarithromycin 500 mg twice daily for 5 days; and study 6 (DDI study with clarithromycin and amoxicillin), multiple doses of tegoprazan 100 mg were orally administered twice daily with or without multiple doses of clarithromycin/amoxicillin 500/1000 mg twice daily for 5 days or 7 days.
After refining and verifying the PBPK model of tegoprazan as a single agent, the DDI between tegoprazan and clarithromycin was finally verified using data from DDI clinical studies. To verify the predictability of the DDI estimated by the PBPK model of tegoprazan, the model-predicted PK profiles, parameters, and fold-increase of parameters were compared with the observed PK data measured in clinical studies (i.e., studies 5 and 6). In the case of study 6, the observed data were generated under the condition of triple administration of tegoprazan, clarithromycin, and amoxicillin. […] When simulating the DDI between tegoprazan and clarithromycin, the PBPK model of clarithromycin available in the SimCYP compound file was used.

A short description of data set [3]: Parallel artificial membrane permeability assay (PAMPA). The data set is classed as in vitro ADME. The text has this:
The advanced dissolution, absorption, and metabolism model was used. The unbound fraction of the drug in enterocytes (fuGut) and the human jejunum effective permeability (Peff,man) were predicted because these values were not routinely measured (Table 1). The value of fuGut was predicted using the values of in vitro parameters, such as the octanol:water partition coefficient, the fraction of intracellular water, and other distribution-related parameters (in-house data). The value of Peff,man was predicted using parallel artificial membrane permeation assay permeability (in-house data).
A general note: In PAMPA a lipid-coated filter parts donor from acceptor wells.

The mark [4] stands for this setting: tegoprazan 100 mg BID with vs without clarithromycin 500 mg BID + amoxicillin 1000 mg BID.
The mark [5] stands for this setting: tegoprazan 200 mg QD with vs without clarithromycin 500 mg BID.

T1 sequence (P33261 whole entry): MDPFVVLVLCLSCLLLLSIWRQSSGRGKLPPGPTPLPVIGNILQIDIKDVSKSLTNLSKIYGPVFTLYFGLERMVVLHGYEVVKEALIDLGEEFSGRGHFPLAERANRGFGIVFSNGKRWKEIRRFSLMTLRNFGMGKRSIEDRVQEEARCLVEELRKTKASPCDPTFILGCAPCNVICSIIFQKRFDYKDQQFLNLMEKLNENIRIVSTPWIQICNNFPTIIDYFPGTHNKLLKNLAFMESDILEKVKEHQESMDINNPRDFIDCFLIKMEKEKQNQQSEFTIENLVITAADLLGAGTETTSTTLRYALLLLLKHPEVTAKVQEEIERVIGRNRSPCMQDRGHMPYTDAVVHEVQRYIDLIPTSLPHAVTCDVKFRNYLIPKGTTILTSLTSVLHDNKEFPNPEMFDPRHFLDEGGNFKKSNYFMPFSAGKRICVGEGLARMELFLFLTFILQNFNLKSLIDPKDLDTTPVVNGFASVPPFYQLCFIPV
T3 sequence (P11712 whole entry): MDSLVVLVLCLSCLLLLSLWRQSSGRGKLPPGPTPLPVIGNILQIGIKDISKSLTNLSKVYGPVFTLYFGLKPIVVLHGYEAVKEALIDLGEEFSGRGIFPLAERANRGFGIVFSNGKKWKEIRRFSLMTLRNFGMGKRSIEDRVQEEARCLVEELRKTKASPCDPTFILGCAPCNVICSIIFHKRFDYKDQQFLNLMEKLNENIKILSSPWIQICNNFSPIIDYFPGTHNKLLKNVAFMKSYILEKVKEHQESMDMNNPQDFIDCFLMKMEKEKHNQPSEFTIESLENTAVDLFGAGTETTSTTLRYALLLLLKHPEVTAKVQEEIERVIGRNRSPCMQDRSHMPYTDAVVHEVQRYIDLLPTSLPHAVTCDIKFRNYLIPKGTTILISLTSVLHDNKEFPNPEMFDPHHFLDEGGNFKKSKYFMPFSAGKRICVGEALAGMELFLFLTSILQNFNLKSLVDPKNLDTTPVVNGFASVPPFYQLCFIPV

For `Cc1nc2cc(C(=O)N(C)C)cc(O[C@H]3CCOc4cc(F)cc(F)c43)c2[nH]1` [tegoprazan], on CYP2C19, the “CYP2C19 CLint” value is on record as 3.6 μL/min/mg of protein. In addition, the “CYP1A2 CLint” value at CYP1A2 is listed as 2.5 μL/min/mg of protein. For the same compound, the “CYP2C9 CLint” value at CYP2C9 is 2.6 μL/min/mg of protein. Besides, in data set [1], the “Q (blood flow between central compartment and SAC)” value is 24.4 L/h; the “VSAC (volume of the single adjusted compartment)” value is on record as 0.66 L/kg. In addition, the Kp in data set [1] (male, human, oral, read-out: Kp scalar) is 0.33. For the same compound, in data set [2] (setting [4]), the “Fold Increase Obs. AUCR” value was 2.69 and the “Fold Increase Obs. CmaxR” value amounted to 2.24. Besides, in data set [2] (setting [5]), the “Fold Increase Obs. AUCR” value is listed as 2.57 and the “Fold Increase Obs. CmaxR” value turned out to be 1.66. This compound gave a Papp in data set [3] of 68.4 ×10⁻⁶ cm/s.
